51 molecules from US9181264B2, “Fused heteroaryls and their uses” (Hutchison MediPharma Limited, priority 2011, dated 2015) can be followed below.

One experiment deals with T1, PI3Kα kinase (Homo sapiens, UniProt P42336).
T1 construct: purchased Invitrogen PV4788
Put plainly: PI3Ka Transcreener ADP assay (fluorescence polarization). Type of experiment: biochemical. The note with it: 10 μM ATP, 30 μmol/L lipid substrate; read-out: IC50, inhibition of PI3Kα kinase. How it is done: Fluorescence polarization was used in this assay. The final conditions for kinase assay are 10 μM of ATP, 0.2 ng/μL of PI3Kα kinase, 30 μmol/L of lipid substrate and assay buffer (50 mmol/L of HEPES (pH 7.5), 100 mmol/L of NaCl, 1 mmol/L of EGTA, 3 mmol/L of MgCl2, 1 mmol/L of DTT and 0.03% CHAPS and 2% DMSO).
5 μL of test compounds in 10% DMSO and 10 μL of 0.5 ng/μL PI3K kinase (Invitrogen, PV4788) in assay buffer are put into a 96-well plate (Greiner, Cat. 675076), and then the reaction is started by the addition of 10 μL of 75 μmol/L PIP2, (PS Lipid Substrate Invitrogen, PV5100), and 25 μmol/L ATP mixture. After the mixture is incubated for 60 minutes at room temperature, 25 μL of transcreener Kinase Kit reagent—ADP Detection Mix—(Bellbrook Labs) is added, and the reaction is continued for an additional 1.5 hours. At the end, the plate is read in a Tecan Infinite F500 at excitation of 610 nm and emission of 670 nm.
A standard curve for ADP is obtained in a parallel way by replacing compound and PI3Kα kinase with DMSO and assay buffer, respectively. Different concentration of ADP, 0-10 μM, and ATP, 10-0 μM (ATP+ADP equal to 10 μM) are applied instead of a fixed concentration of ATP in this standard curve assay. Other conditions are the same as described above. The standard curve is plotted using Origin 8.0 software. The inhibition of test compound on ADP production is calculated based on ADP concentration from standard curve. IC50 is obtained using XLfit 2.0 software.
In general terms: In fluorescence polarisation assays a small probe gives low polarisation when free and higher when bound to something large.

The next experiment addresses T2, mTOR kinase (Homo sapiens, UniProt P42345).
T2 construct: purchased Invitrogen PV4753
Kind of experiment: mTOR LanthaScreen TR-FRET assay. Format: biochemical. The following applies: 10 μmol/L ATP, GFP-4EBP1 substrate; read-out: IC50, inhibition of mTOR. How it is done: Compounds are tested using LanthaScreen TR-FRET Assay. The kinase reaction is completed in 384-well black plate (Corning, Cat. 3676). The final conditions for kinase assay are: 10 μmol/L of ATP, 0.2 ng/μL of mTOR kinase, 0.4 μmol/L of GFP-4EBP1 substrate and assay buffer (50 mmol/L of HEPES, pH 7.5, 0.01% of Tween 20, 1 mmol/L of EGTA, 10 mmol/L of MnCl2, 2 mmol/L of DTT and 1% DMSO).
To each well, 2.5 μL of test compounds in 4% DMSO and 2.5 μL of 0.8 ng/μL mTOR kinase (Invitrogen, PV4753) diluted in assay buffer are added. The reaction is initiated by the addition of 5 μL mixture of 0.8 μmol/L GFP-4EBP1 Substrate (Invitorgen, PV4759) and 20 μmol/L ATP mixtures. The mixture is incubated at room temperature for 60 minutes. 10 μL of 20 mmol/L EDTA and 4 nmol/L Tb-anti-p4EBP1 [pThr46] antibody (Invitrogen, PV4755) diluted in TR-FRET dilution buffer are added and incubated for an additional 1 hour. The plate is then read in a BioTek Synergy2 Reader at excitation of 340 nm and emission of 490 nm and 528 nm.
The inhibition of test compound is calculated based on the ratio of 528 nm/490 nm. IC50 of test compound is obtained using XLfit 2.0 software.
On the technique in general: TR-FRET usually uses a lanthanide donor and a delayed reading to cut background.

T1 sequence (P42336 whole entry): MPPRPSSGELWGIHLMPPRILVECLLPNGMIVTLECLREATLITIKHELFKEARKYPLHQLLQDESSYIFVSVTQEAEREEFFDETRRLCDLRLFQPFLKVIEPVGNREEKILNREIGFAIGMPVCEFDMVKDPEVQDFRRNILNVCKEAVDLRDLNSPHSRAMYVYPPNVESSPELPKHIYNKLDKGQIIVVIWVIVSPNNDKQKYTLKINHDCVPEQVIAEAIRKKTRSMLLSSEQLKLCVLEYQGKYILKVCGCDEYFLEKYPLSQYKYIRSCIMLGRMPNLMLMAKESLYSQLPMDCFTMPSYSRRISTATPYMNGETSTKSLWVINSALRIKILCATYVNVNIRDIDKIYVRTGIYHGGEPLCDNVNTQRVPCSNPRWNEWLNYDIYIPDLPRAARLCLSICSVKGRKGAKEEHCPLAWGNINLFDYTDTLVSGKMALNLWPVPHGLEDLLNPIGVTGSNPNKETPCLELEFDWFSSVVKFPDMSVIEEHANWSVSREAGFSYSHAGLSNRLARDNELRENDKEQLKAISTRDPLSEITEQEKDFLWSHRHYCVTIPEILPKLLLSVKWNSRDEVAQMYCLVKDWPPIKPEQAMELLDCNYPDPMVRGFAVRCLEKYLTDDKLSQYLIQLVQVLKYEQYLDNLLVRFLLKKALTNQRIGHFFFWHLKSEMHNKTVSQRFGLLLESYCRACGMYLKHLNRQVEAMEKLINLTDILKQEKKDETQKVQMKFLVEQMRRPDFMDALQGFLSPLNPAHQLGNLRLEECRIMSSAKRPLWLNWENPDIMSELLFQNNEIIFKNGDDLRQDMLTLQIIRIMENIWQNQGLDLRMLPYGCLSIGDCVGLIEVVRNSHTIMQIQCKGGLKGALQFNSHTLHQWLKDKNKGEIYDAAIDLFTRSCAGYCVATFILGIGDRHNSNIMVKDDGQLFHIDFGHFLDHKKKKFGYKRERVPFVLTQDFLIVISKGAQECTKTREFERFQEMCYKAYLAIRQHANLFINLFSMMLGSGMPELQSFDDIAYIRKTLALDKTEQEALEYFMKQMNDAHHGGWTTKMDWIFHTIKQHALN
T1 sequence (P27986 whole entry partner): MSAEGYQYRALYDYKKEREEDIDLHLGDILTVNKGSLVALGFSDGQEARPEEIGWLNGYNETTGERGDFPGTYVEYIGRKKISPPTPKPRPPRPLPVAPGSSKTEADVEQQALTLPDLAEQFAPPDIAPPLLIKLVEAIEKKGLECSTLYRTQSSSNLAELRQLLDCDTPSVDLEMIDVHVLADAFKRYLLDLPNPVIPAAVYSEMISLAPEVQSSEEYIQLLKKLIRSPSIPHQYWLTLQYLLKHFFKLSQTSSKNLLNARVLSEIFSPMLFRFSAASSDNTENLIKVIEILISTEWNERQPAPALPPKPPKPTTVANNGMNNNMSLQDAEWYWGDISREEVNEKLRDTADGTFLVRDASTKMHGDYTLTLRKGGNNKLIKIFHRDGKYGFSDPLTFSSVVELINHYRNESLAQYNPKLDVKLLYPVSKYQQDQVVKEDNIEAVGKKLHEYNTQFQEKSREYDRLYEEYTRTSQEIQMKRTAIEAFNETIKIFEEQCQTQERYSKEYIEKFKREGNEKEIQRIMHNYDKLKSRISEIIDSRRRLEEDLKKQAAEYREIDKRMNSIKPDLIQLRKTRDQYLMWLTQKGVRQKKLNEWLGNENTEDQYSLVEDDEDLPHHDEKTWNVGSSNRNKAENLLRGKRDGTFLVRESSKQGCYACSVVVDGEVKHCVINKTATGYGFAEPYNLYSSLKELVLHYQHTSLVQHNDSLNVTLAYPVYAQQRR
T2 sequence (P42345 1360-2549 limits assumed): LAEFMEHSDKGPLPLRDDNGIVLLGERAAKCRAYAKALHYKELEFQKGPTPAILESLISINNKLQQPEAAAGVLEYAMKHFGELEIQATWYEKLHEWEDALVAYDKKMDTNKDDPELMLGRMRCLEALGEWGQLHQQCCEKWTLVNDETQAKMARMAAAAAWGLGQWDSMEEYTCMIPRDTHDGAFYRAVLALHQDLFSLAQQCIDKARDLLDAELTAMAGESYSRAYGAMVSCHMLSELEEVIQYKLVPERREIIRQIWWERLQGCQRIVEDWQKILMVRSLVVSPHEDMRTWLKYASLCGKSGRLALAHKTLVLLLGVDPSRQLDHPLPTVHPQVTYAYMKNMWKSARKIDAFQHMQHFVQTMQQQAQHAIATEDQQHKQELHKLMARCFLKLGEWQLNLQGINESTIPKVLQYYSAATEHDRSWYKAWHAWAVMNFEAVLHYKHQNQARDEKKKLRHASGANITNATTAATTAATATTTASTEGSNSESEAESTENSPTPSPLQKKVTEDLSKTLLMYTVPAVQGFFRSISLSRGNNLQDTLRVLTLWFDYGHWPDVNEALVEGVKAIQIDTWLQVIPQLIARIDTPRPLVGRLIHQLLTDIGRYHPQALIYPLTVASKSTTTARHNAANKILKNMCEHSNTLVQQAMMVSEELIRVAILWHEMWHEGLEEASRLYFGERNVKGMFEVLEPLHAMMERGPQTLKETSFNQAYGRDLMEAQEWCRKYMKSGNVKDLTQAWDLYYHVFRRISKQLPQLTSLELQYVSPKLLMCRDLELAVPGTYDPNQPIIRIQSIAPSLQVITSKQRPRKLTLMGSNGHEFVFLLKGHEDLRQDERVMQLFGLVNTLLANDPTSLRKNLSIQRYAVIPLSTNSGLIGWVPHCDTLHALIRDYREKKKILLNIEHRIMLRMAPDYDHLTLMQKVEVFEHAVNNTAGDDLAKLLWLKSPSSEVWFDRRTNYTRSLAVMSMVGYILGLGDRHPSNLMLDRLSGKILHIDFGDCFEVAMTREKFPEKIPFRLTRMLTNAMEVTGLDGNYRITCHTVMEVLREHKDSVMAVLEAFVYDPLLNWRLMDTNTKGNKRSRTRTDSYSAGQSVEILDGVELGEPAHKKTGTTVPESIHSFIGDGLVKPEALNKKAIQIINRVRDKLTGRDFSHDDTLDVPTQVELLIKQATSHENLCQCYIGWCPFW

As a reminder, the IC50 is the concentration that gives 50% inhibition. Consider `CC(C)(O)C(=O)N1CCC(n2nnc3cnc4ccc(-c5cnc(N)c(C(F)(F)F)c5)nc4c32)CC1` [Compound 26], for which the IC50 at PI3Kα kinase and at mTOR kinase was < 100 nM each time.

Consider `Nc1ncc(-c2ccc3ncc4ncn(C5CCN(C(=O)C6CC6)CC5)c4c3n2)cc1C(F)(F)F` [Compound 88, (4-(8-(6-amino-5-(trifluoromethyl)pyridine-3-yl)-1H-imidazo[4,5-c][1,5]naphthyridin-1-yl)piperidin-1-yl)(cyclopropyl)methanone], for which the IC50 at PI3Kα kinase and on mTOR kinase was < 100 nM in each case.

As for `CCCC(=O)N1CCC(n2nnc3cnc4ccc(-c5cnc(N)c(C(F)(F)F)c5)nc4c32)CC1` [Compound 35], the IC50 at PI3Kα kinase and on mTOR kinase was < 100 nM each time.

In the case of `Cc1ncc(-c2ccc3ncc4nnc(C)n4c3c2)cc1NS(=O)(=O)c1ccc(F)cc1F` [Compound 156], the IC50 at PI3Kα kinase and on mTOR kinase was < 100 nM in each case.

In the case of `Cc1nc2cnc3ccc(-c4cnc(N)c(C(F)(F)F)c4)nc3c2n1C1CCC(N2CCOCC2)CC1` (stereo not shown) [Compound 137], the IC50 on PI3Kα kinase is < 100 nM.

`C=CC(=O)N1CCC(n2nnc3cnc4ccc(-c5cnc(N)c(C)c5)nc4c32)CC1` [Compound 29]: the IC50 at PI3Kα kinase was < 100 nM.

`Cc1nc2cnc3ccc(-c4cnc(N)c(C(F)(F)F)c4)nc3c2n1C1CCN(CC(=O)N2CCOCC2)CC1` [Compound 124]: at PI3Kα kinase, the IC50 was < 100 nM.

On to `COc1ncc(-c2ccc3ncc4nnc(CCN5CCOCC5)n4c3c2)cc1NS(C)(=O)=O` [Compound 171], for which the IC50 at PI3Kα kinase is < 100 nM.

With `COc1ncc(-c2ccc3ncc4nccn4c3c2)cc1NS(=O)(=O)c1ccc(F)cc1F` [Compound 173], the IC50 at PI3Kα kinase was < 100 nM.

On to `Nc1ncc(-c2ccc3ncc4nnn(-c5cccc(Cl)c5)c4c3c2)cn1` [Compound 13], for which the IC50 at PI3Kα kinase is < 100 nM.

As for `Cc1nc2cnc3ccc(-c4cnc(N)c(C(F)(F)F)c4)nc3c2n1C1CCN(S(C)(=O)=O)CC1` [Compound 138], the IC50 at PI3Kα kinase was < 100 nM.

As to `Cc1nc2cnc3ccc(-c4cnc(N)c(C(F)(F)F)c4)nc3c2n1C1CCN(C(=O)[C@@H](C)O)CC1` [Compound 126], the IC50 at PI3Kα kinase is < 100 nM.

Take `CC#CC(=O)N1CCC(n2c(C)nc3cnc4ccc(-c5cnc(N)c(C(F)(F)F)c5)nc4c32)CC1` [Compound 144]: at PI3Kα kinase, the IC50 was < 100 nM.

In the case of `CC(C)(C#N)c1ccc(-n2cnc3cnc4ccc(-c5cnc(N)nc5)nc4c32)cn1` [Compound 94], on PI3Kα kinase, the IC50 was < 100 nM.

Take `COc1ncc(-c2ccc3ncc4n[nH]c(=O)n4c3c2)cc1NS(=O)(=O)c1ccc(F)cc1F` [Compound 163]: on PI3Kα kinase, the 50% inhibitory concentration (IC50) was < 100 nM.

Regarding `C/C=C/C(=O)N1CCC(n2c(C)nc3cnc4ccc(-c5cnc(N)c(C(F)(F)F)c5)nc4c32)CC1` [Compound 145], the IC50 on PI3Kα kinase was < 100 nM.

As to `Nc1nc2ccc(-c3ccc4ncc5nnc(-c6ccc(F)cn6)n5c4c3)cc2s1` [Compound 60], the IC50 at PI3Kα kinase was < 100 nM.

For `COc1ncc(-c2ccc3ncc4nnc(C(=O)N5CCCC5)n4c3c2)cc1NS(=O)(=O)C1CC1` [Compound 167], the IC50 on PI3Kα kinase is < 100 nM.

For `CC(C)(C#N)c1ccc(-n2cnc3cnc4ccc(-c5cnc(N)c(C(F)(F)F)c5)nc4c32)cc1` [Compound 104], the IC50 on PI3Kα kinase was < 100 nM.

Turning to `CC(C)(C#N)c1ccc(-n2nnc3cnc4ccc(-c5cnc(N)nc5)nc4c32)cc1` [Compound 18], on PI3Kα kinase, the IC50 was < 100 nM.

Regarding `Nc1ncc(-c2ccc3ncc4ncn(C5CCN(CC(=O)N6CCOCC6)CC5)c4c3n2)cc1C(F)(F)F` [Compound 97], on PI3Kα kinase, the IC50 was < 100 nM.

With `COCc1nnc2cnc3ccc(-c4cnc(OC)c(NS(=O)(=O)C5CC5)c4)cc3n12` [Compound 170], the half-inhibitory concentration (IC50) at PI3Kα kinase was < 100 nM.

Consider `C[C@@H](O)C(=O)N1CCC(c2nnc3cnc4ccc(-c5ccc6nc(N)sc6c5)cc4n23)CC1` [Compound 81], for which the IC50 at PI3Kα kinase was < 100 nM.

Turning to `N#Cc1cccc(-c2nnc3cnc4ccc(-c5cnc(N)c(C(F)(F)F)c5)cc4n23)c1` [Compound 62], on PI3Kα kinase, the IC50 was < 100 nM.

Regarding `CC(C)C(=O)N1CCC(n2nnc3cnc4ccc(-c5cnc(N)c(F)c5)nc4c32)CC1` [Compound 31], at PI3Kα kinase, the IC50 was < 100 nM.

Consider `Cc1nc2cnc3ccc(-c4cnc(N)c(C(F)(F)F)c4)nc3c2n1C1CCN(Cc2ccccn2)CC1` [Compound 128], for which the IC50 on PI3Kα kinase is < 100 nM.

For `Cc1cc(-c2ccc3ncc4nc(C)n(C5CCC(N6CCOCC6)CC5)c4c3n2)cnc1N` (stereo not shown) [Compound 136], the IC50 at PI3Kα kinase was < 100 nM.

With `Cc1nc2nnc3ccc(-c4cnc(N)c(C(F)(F)F)c4)cc3c2n1-c1ccc(C(C)(C)C#N)cc1` [Compound 184], at PI3Kα kinase, the IC50 is < 100 nM.

Take `Cc1nc2cnc3ccc(-c4cnc5[nH]ccc5c4)nc3c2n1C1CCOCC1` [Compound 135]: the IC50 at PI3Kα kinase is < 100 nM.

Take `Nc1ncc(-c2ccc3ncc4nnn(C5CCN(CC6CC6)CC5)c4c3n2)cc1C(F)(F)F` [Compound 20]: at PI3Kα kinase, the IC50 is < 100 nM.

On to `Cc1nc2cnc3ccc(-c4cnc5[nH]ncc5c4)nc3c2n1C1CCOCC1` [Compound 134], for which, on PI3Kα kinase, the IC50 was < 100 nM.

Consider `Nc1ncc(-c2ccc3ncc4nnc(-c5ccc(F)cn5)n4c3c2)cc1C(F)(F)F` [Compound 59], for which the IC50 on PI3Kα kinase is < 100 nM.

Regarding `COc1ncc(-c2ccc3ncc4nnc(CN5CCOCC5)n4c3c2)cc1NS(C)(=O)=O` [Compound 172], the IC50 at PI3Kα kinase is < 100 nM.

Regarding `Cc1nc2cnc3ccc(-c4cnc(N)c(C(F)(F)F)c4)nc3c2n1C1CCOCC1` [Compound 133], the IC50 at PI3Kα kinase is < 100 nM.

Take `COCCN1CCC(n2c(C)nc3cnc4ccc(-c5cnc(N)c(C(F)(F)F)c5)nc4c32)CC1` [Compound 130]: the IC50 at PI3Kα kinase was < 100 nM.

With `COc1ncc(-c2ccc3ncc4nnc(C5CC5)n4c3c2)cc1NS(=O)(=O)c1ccc(F)cc1F` [Compound 162], on PI3Kα kinase, the IC50 is < 100 nM.

As for `C[C@H](O)C(=O)N1CCC(n2nnc3cnc4ccc(-c5cnc6[nH]ccc6c5)nc4c32)CC1` [Compound 8], on PI3Kα kinase, the IC50 was < 100 nM.

As to `CC(C)(C#N)c1ccc(-n2cnc3cnc4ccc(-c5cnc(N)c(C(F)(F)F)c5)nc4c32)cn1` [Compound 89], the IC50 at PI3Kα kinase is < 100 nM.

Turning to `Nc1ncc(-c2ccc3ncc4nnn(C5CCN(C(=O)C6(O)CC6)CC5)c4c3n2)cc1C(F)(F)F` [Compound 39], the IC50 at PI3Kα kinase was < 100 nM.

Regarding `CC(=O)N1CCCC(c2nnc3cnc4ccc(-c5ccc6nc(N)sc6c5)cc4n23)C1` (stereo not shown) [Compound 84], on PI3Kα kinase, the IC50 was < 100 nM.

Regarding `C#Cc1cc(-c2ccc3ncc4ncn(C5CCN(C(=O)C6CC6)CC5)c4c3n2)cnc1N` [Compound 112], at PI3Kα kinase, the IC50 was < 100 nM.

For the molecule `COc1cc(-c2ccc3ncc4nnc(-c5ccc(C(C)(C)C#N)cc5)n4c3c2)cnc1OC` [Compound 76], the half-inhibitory concentration (IC50) on PI3Kα kinase is < 100 nM.

`CCS(=O)(=O)Nc1cc(-c2ccc3ncc4nnc(C)n4c3c2)cnc1OC` [Compound 164]: the IC50 on PI3Kα kinase was < 100 nM.

As to `COc1ccc(-c2ccc3ncc4nnn(C5CCN(C(=O)[C@H](C)O)CC5)c4c3n2)cn1` [Compound 5], the IC50 on PI3Kα kinase was < 100 nM.

`COc1cc(-c2ccc3ncc4ncn(C5CCN(CC(=O)N(C)C)CC5)c4c3n2)cnc1OC` [Compound 99]: the IC50 at PI3Kα kinase was < 100 nM.

Consider `Nc1ncc(-c2ccc3ncc4ncn(CCN5CCCC5)c4c3n2)cc1C(F)(F)F` [Compound 111], for which the half-inhibitory concentration (IC50) at PI3Kα kinase was < 100 nM.

Take `CC(=O)N1CCC(n2nnc3cnc4ccc(-c5cnc(N)c(C(F)(F)F)c5)cc4c32)CC1` [Compound 15]: the IC50 on PI3Kα kinase is < 100 nM.

With `Cc1cc(-c2ccc3ncc4ncn(-c5ccc(C(C)(C)C#N)nc5)c4c3n2)cnc1N` [Compound 90], the IC50 at PI3Kα kinase is < 100 nM.

Take `Nc1ncc(-c2ccc3ncc4nnn(C5CCN(C(=O)C6CC6)CC5)c4c3n2)cc1F` [Compound 11]: the IC50 at PI3Kα kinase is < 100 nM.

Take `Nc1ncc(-c2ccc3ncc4nnn(C5CCN(C(=O)CC6CC6)CC5)c4c3n2)cc1C(F)(F)F` [Compound 38]: at PI3Kα kinase, the IC50 was < 100 nM.

As for `Cc1cc(-c2ccc3ncc4nnn(C5CCN(C(=O)[C@@H](C)O)CC5)c4c3n2)cnc1N` [Compound 22], on PI3Kα kinase, the IC50 was < 100 nM.
